Measured values: patent publication US12310946B2, “Pharmaceutical composition for oral administration of edaravone and method of administering same” (MITSUBISHI TANABE PHARMA CORPORATION, priority 2020, dated 2025)
Where two headings read alike, the source gives them in different places.

What was measured:
[1] = Clinical studies #7 and #8: edaravone oral dose vs AUC (4-parameter logistic model) compared with 60-mg intravenous administration; type: in vivo; details: human, plasma; approved 60-mg edaravone intravenous administration formulation (60 mg/60 min)
Method: Specifically, clinical studies #7 and #8 described below were conducted in healthy adult male subjects for each subject group. In clinical studies #7 and #8, one dose each of edaravone oral formulations (edaravone suspensions) of formulas #7 and #8 shown in Table 11 below were used respectively and administered orally once during the study period.
Any of the edaravone oral formulations (formula #7) with an edaravone content of 30 mg, 60 mg, 120 mg, 200 mg, or 300 mg was administered orally to subjects in fasted conditions after a lapse of 10 hours or longer from consumption of a meal. The edaravone oral formulations with each content were each administered orally to 6 subjects. Blood samples were each collected before the administration, and 15 minutes, 30 minutes, 1 hour, 1.5 hours, 2 hours, 4 hours, 6 hours, 8 hours, 12 hours, 24 hours, 36 hours, and 48 hours after the administration, the concentrations of unchanged edaravone were measured, and the AUCs were calculated.
The edaravone oral formulations (formula #8) with an edaravone content of 100 mg was administered orally to 9 subjects in fasted conditions after a lapse of 10 hours or longer from consumption of a meal. […]

[2] = Clinical study #11: PK of edaravone oral formulation (formula #3) via nasopharyngeal gastric tube vs oral in healthy adults; type: in vivo, human; details: for AUC(0-inf) / Cmax / AUC / half-life / Tmax: human, plasma; for AUC(0-inf) / Cmax: 105 mg; for Tmax: read-out: tmax (median)
Method: Pharmacokinetics of edaravone in administration of the edaravone oral formulation via a PEG tube was evaluated in 36 healthy adults. Specifically, performing gastrostomy in healthy adults is difficult, thus a nasopharyngeal gastric tube (NG tube), which allows the administration into the stomach via a tube in the same manner, was used as a model of administration via a percutaneous endoscopic gastrostomy tube (PEG tube), and a clinical study #11 described below was conducted.
The edaravone oral formulation (#3) was administered via a nasopharyngeal gastric tube (NG tube) to the subject group in fasted conditions after a lapse of 10 hours or longer from consumption of a meal. In the administration via an NG tube, first, 100 mL of lukewarm water was injected through an NG tube 1 hour before the administration of the edaravone oral formulation, and 10 mL of lukewarm water was injected through an NG tube immediately before the administration. Then, the edaravone oral formulation was administered to the NG tube, and further 30 mL of water was injected through the NG tube to wash in the edaravone oral formulation. Blood samples were each collected before the administration, and 5 minutes, 15 minutes, 30 minutes, 45 minutes, 1 hour, 1.5 hours, 2 hours, 4 hours, 6 hours, 8 hours, 10 hours, 12 hours, 24 hours, 36 hours, and 48 hours after the administration, and the concentrations of unchanged edaravone in plasma were measured. As a reference example, the same edaravone oral formulation was administered orally to the same subjects, blood samples were collected, and the concentrations of unchanged edaravone in plasma were measured in the same manner. For the oral administration, the edaravone oral formulation was administered orally after a lapse of 10 hours or longer from the previous meal consumption. None of the subjects consumed a next meal until the blood sample collection 4 hours after the administration was completed. In addition, results of an analysis of variance conducted on the AUC and Cmax in consideration of the meal condition are shown in Table 14 below.

[3] = Adsorption of edaravone to catheter in vitro (recovery after wash-in); type: physicochemical; details: regardless of the material of the catheter
Method: In administration using a catheter, catheters of various materials are used in medical facilities. Thus, whether administration is feasible with a catheter of any material was investigated by evaluating adsorption properties of catheters. That is, the edaravone oral formulation (#3) was passed through a catheter, and then the percentage of edaravone collected by washing in with water was evaluated.
Specifically, the edaravone oral formulation was loaded into a syringe for catheter administration to give an edaravone amount of 105 mg, and the edaravone oral formulation was passed from the syringe to each of the catheters. Water at a predetermined temperature was then injected into the catheter to wash in the edaravone oral formulation. The edaravone oral formulation that passed through the catheter and the wash-in liquid were collected and mixed, and an amount of edaravone contained in the mixed liquid was measured. The edaravone oral formulation was washed in under any of the following conditions: with 10 ml of water three times, with 30 ml of water at 25° C. or 40° C. once, or with 50 mL of water at 25° C. or 40° C. once. Three measurements were made for each catheter, and the mean and SD of recovery % were calculated.

[4] = Nasopharyngeal gastric tube / Oral, least squares mean ratio
[5] = other: nasopharyngeal gastric tube (NG tube), formula #3 (105 mg), Nasopharyngeal gastric tube, fasted (N = 36), mean
[6] = formula #3 (105 mg), Oral, fasted (N = 36), mean

## CC1=NN(c2ccccc2)C(=O)C1 [Edaravone, 3-methyl-1-phenyl-2-pyrazolin-5-one]
[1]
  AUC: 1740 ng·h/mL
[2]; [4]
  AUC0-∞ Ratio: 0.981
  Cmax Ratio: 1.052
[2]; other: nasopharyngeal gastric tube (NG tube), Nasopharyngeal gastric tube, analysis of variance, read-out: AUC0-∞ Least-square mean
  AUC(0-inf): 2500 ng·h/mL
[2]; other: nasopharyngeal gastric tube (NG tube), Nasopharyngeal gastric tube, analysis of variance, read-out: Cmax Least-square mean
  Cmax: 2430 ng/mL
[2]; other: nasopharyngeal gastric tube (NG tube), formula #3 (105 mg), Nasopharyngeal gastric tube, fasted (N = 36), mean, read-out: AUC0-∞
  AUC(0-inf): 2620 ng·h/mL
[2]; other: nasopharyngeal gastric tube (NG tube), formula #3 (105 mg), Nasopharyngeal gastric tube, fasted (N = 36), mean, read-out: Cmax
  Cmax: 2780 ng/mL
[2]; [5]
  AUC: 2590 ng·h/mL
  half-life: 13.5 h
[2]; other: nasopharyngeal gastric tube (NG tube), formula #3 (105 mg), Nasopharyngeal gastric tube, fasted (N = 36)
  Tmax: 0.25 h
[2]; po, Oral, analysis of variance, read-out: AUC0-∞ Least-square mean
  AUC(0-inf): 2550 ng·h/mL
[2]; po, Oral, analysis of variance, read-out: Cmax Least-square mean
  Cmax: 2310 ng/mL
[2]; po, formula #3 (105 mg), Oral, fasted (N = 36), mean, read-out: AUC0-∞
  AUC(0-inf): 2660 ng·h/mL
[2]; po, formula #3 (105 mg), Oral, fasted (N = 36), mean, read-out: Cmax
  Cmax: 2470 ng/mL
[2]; [6]
  AUC: 2610 ng·h/mL
  half-life: 21.5 h
[2]; formula #3 (105 mg), Oral, fasted (N = 36)
  Tmax: 0.5 h
[3]
  adsorption of edaravone on the catheters: No adsorption
